Patent US20230364079A1, “COMPOUND AS BRAIN-PERMEABLE BTK OR HER2 INHIBITOR, PREPARATION METHOD THEREFOR, AND USE THEREOF” (CHENGDU HYPERWAY PHARMACEUTICALS CO., LTD., priority 2020, published 2023)

These compounds were tested against BTK wild-type kinase (Homo sapiens (Human), UniProt Q06187) (assay: BTK kinase activity inhibition test in vitro (Caliper EZ Reader)).
Type: biochemical
Method: In the tests on the activity of inhibiting BTK and HER2 kinase in vitro in the examples of the present disclosure, powder of the compound was dissolved in 100% DMSO to prepare a 10 mM stock solution and stored at-20° C. in the dark. […] In addition, the compounds were subjected to experiments such as liver microsome metabolic stability, rat PK, rat brain penetration rate, and drug efficacy model in the examples of the present disclosure.
Compound powders were dissolved in 100% DMSO to make 10 mM stock solutions, which were stored at -20° C. in the dark.
2: Kinase Reaction Process
(1) Preparation of 1 × Kinase buffer.
(5) After centrifugation at 1000 rpm for 30 seconds, the reaction plate was shaken to mix well and incubated at room temperature for 10 min.
(6) A 5/3-fold final concentration of a mixed solution of ATP and Kinase substrate 2 was prepared with 1 × Kinase buffer.
(7) 15 µL of the mixed solution of ATP and substrate with 5/3-fold final concentration was added to start the reaction.
(8) The 384-well plate was centrifuged at 1000 rpm for 30 seconds, shaken to mix well, and incubated at room temperature for 10 min.
(9) 30 µL of a stop solution was added to stop the kinase reaction, and after centrifugation at 1000 rpm for 30 seconds, the plate was shaken to mix well;
(10) The conversion rate was read with Caliper EZ Reader.
where Conversion%_sample indicates the conversion rate reading of the sample; Conversion%_min is the average reading of the negative control wells, representing the conversion rate reading of the wells without enzyme activity; Conversion%_max is the average reading of the ratio of the positive control wells, representing the conversion rate reading of the wells without compound inhibition.
Dose-Response Curve Fitting
With the log value of the concentration as the X-axis, and the percentage inhibition rate as the Y-axis, the dose-effect curve was fitted using the log(inhibitor) vs. response-Variable slope of the analysis software GraphPad Prism 5, so as to determine the IC50 value of each compound on the enzyme activity.
The calculation formula was: […]

Sequence of BTK wild-type kinase (Q06187 whole entry): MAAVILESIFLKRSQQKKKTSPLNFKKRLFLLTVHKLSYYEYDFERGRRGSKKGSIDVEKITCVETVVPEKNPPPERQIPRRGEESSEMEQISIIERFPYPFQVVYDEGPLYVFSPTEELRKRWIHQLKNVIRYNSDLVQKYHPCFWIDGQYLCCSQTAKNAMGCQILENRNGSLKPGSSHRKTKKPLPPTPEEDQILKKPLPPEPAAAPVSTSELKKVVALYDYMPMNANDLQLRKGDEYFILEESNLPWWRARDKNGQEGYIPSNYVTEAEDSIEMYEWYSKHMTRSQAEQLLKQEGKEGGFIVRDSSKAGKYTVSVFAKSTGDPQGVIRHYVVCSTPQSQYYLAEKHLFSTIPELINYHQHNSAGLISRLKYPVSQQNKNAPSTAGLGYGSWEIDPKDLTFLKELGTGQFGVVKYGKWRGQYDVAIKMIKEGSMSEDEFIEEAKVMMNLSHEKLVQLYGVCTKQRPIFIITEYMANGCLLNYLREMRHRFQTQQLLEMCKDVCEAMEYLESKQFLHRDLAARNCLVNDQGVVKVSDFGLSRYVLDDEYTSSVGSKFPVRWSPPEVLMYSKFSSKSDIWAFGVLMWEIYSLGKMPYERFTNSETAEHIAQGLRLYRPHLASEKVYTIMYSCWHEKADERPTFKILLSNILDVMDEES

Compound | IC50 [nM]
COc1cccc(Oc2ccc(-c3nc(C4CCC(CO)OC4)n4ccnc(N)c34)cc2)c1C#N (single isomer, unassigned) [Compound 89-P2] | < 5
Nc1nccn2c(C3CCC(CO)OC3)nc(-c3ccc(C(=O)Nc4cc(C(F)(F)F)ccn4)cc3)c12 (single isomer, unassigned) [Compound 109-P2] | < 5
Nc1nccn2c(C3CC[C@H](CO)OC3)nc(-c3ccc(C(=O)Nc4ccccn4)cc3F)c12 (stereo partly shown) [Compound 1-A] | 5 to 20
Nc1ncc(Cl)n2c(C3CCC(CO)OC3)nc(-c3ccc(C(=O)Nc4ccccn4)cc3)c12 (stereo not shown) [Compound 3] | 20 to 100
Nc1ncc(Cl)n2c(C3CCC(CO)OC3)nc(-c3ccc(C(=O)Nc4ccccn4)cc3F)c12 (stereo not shown) [Compound 4] | 20 to 100
COc1cccc(Oc2ccc(-c3nc(C4CCC(CO)OC4)n4ccnc(N)c34)c(F)c2)c1F (stereo not shown) [Compound 10] | < 5
Nc1nccn2c(C3CCC(CO)OC3)nc(-c3ccc(Oc4cccc(OC5CC5)c4F)cc3)c12 (stereo not shown) [Compound 15] | 5 to 20
Nc1nccn2c(C3CCC(CO)OC3)nc(-c3ccc(Oc4c(F)c(F)cc(F)c4F)cc3F)c12 (stereo not shown) [Compound 18] | 20 to 100
COc1c(F)ccc(Oc2ccc(-c3nc(C4CCC(CO)OC4)n4ccnc(N)c34)cc2)c1F (stereo not shown) [Compound 20] | 5 to 20
COc1cc(Oc2ccc(-c3nc(C4CCC(CO)OC4)n4ccnc(N)c34)cc2)ccc1F (stereo not shown) [Compound 21] | 20 to 100
Nc1nccn2c(C3CCC(CO)OC3)nc(-c3ccc(Oc4cccc(C5CC5)c4F)cc3)c12 (stereo not shown) [Compound 22] | 20 to 100
Nc1nccn2c(C3CCC(CO)OC3)nc(-c3ccc(Oc4cccc(OCC5CC5)c4F)cc3)c12 (stereo not shown) [Compound 23] | 100 to 1000
Nc1nccn2c(C3CCC(CO)OC3)nc(-c3ccc(Oc4ccc(C5CC5)cc4F)cc3)c12 (stereo not shown) [Compound 25] | 20 to 100
CC(O)(c1ccccc1)c1ccc(-c2nc(C3CCC(CO)OC3)n3ccnc(N)c23)cc1 (stereo not shown) [Compound 27] | 20 to 100
CNC(=O)c1cccc(Oc2ccc(-c3nc(C4CCC(CO)OC4)n4ccnc(N)c34)cc2)c1F (stereo not shown) [Compound 28] | 20 to 100
COc1cccc(Oc2ccc(-c3nn(C4CCC(CO)OC4)c4ncnc(N)c34)cc2)c1F (stereo not shown) [Compound 29] | 5 to 20
COc1cccc(Oc2ccc(-c3nn(C4CCC(CO)OC4)c4ccnc(N)c34)cc2)c1F (stereo not shown) [Compound 30] | 5 to 20
Cc1cc(NC(=O)c2ccc(C3CC3)cc2F)c(F)cc1-c1nc(C2CCC(CO)OC2)n2ccnc(N)c12 (stereo not shown) [Compound 31] | > 1000
Nc1nccn2c(C3CCC(CO)OC3)nc(-c3ccc(Oc4ccccc4)cc3Cl)c12 (stereo not shown) [Compound 32] | 5 to 20
COc1ccccc1C(=O)NCc1ccc(-c2nc(C3CCC(CO)OC3)n3ccnc(N)c23)cc1 (stereo not shown) [Compound 33] | 20 to 100
Nc1nccn2c(C34CCC(CO)(CC3)OC4)nc(-c3ccc(C(=O)Nc4ccccn4)cc3F)c12 [Compound 35] | 5 to 20
Nc1ncc(Cl)n2c(C34CCC(CO)(CC3)OC4)nc(-c3ccc(C(=O)Nc4ccccn4)cc3F)c12 [Compound 36] | 5 to 20
COc1cccc(Oc2ccc(-c3nc(C45CCC(CO)(CC4)OC5)n4ccnc(N)c34)cc2)c1F [Compound 37] | < 5

Compound | IC50 [nM]
COc1cccc(Oc2ccc(-c3nc(C45CCC(CO)(CC4)OC5)n4ccnc(N)c34)c(F)c2)c1F [Compound 38] | 5 to 20
COc1cccc(Oc2ccc(-c3nc(C45CCC(CO)(CC4)OC5)n4c(Cl)cnc(N)c34)cc2)c1F [Compound 39] | < 5
Nc1nccn2c(C34COC(CO)(C3)C4)nc(-c3ccc(Oc4cccc(OC(F)(F)F)c4F)cc3F)c12 [Compound 40] | 5 to 20
Nc1ncc(Cl)n2c(C34COC(CO)(C3)C4)nc(-c3ccc(Oc4cccc(OC(F)(F)F)c4F)cc3F)c12 [Compound 41] | 5 to 20
Nc1nccn2c(C34COC(CO)(C3)C4)nc(-c3ccc(C(=O)Nc4ccccn4)cc3)c12 [Compound 42] | 20 to 100
Nc1nccn2c(C34COC(CO)(C3)C4)nc(-c3ccc(C(=O)Nc4ccccn4)cc3F)c12 [Compound 43] | 20 to 100
Nc1ncc(Cl)n2c(C34COC(CO)(C3)C4)nc(-c3ccc(C(=O)Nc4ccccn4)cc3F)c12 [Compound 44] | 20 to 100
COc1cccc(Oc2ccc(-c3nc(C45COC(CO)(C4)C5)n4ccnc(N)c34)cc2)c1F [Compound 45] | 5 to 20
Nc1nccn2c(C3CCC(CO)OC3)nc(-c3ccc(NC(=O)c4ccc(C5CC5)cc4F)cc3)c12 (stereo not shown) [Compound 46] | 100 to 1000
CC(N)(c1ccccc1)c1ccc(-c2nc(C3CCC(CO)OC3)n3ccnc(N)c23)cc1 (stereo not shown) [Compound 47] | 100 to 1000
Nc1nccn2c(C3CCC(CO)OC3)nc(-c3ccc(Nc4ccccc4)cc3)c12 (stereo not shown) [Compound 48] | 20 to 100
C[C@](N)(c1ccc(F)cc1)c1cnc(-c2nc(C3CCC(CO)OC3)n3ccnc(N)c23)nc1 (stereo partly shown) [Compound 49] | > 1000
COc1cccc(Oc2ccc(-c3nc(C4CCC(C5(O)CC5)OC4)n4ccnc(N)c34)cc2)c1F (stereo not shown) [Compound 50] | 20 to 100
COc1cccc(Oc2ccc(-c3nc(C4CCC(C(C)(C)O)OC4)n4ccnc(N)c34)cc2)c1F (stereo not shown) [Compound 51] | 20 to 100
COc1cccc(Oc2ccc(-c3nn(C4CCC(CO)OC4)c4c(Cl)cnc(N)c34)cc2)c1F (stereo not shown) [Compound 52] | 5 to 20
Nc1ncnc2c1c(-c1ccc(Oc3ccccc3)cc1)nn2C1CCC(CO)OC1 (stereo not shown) [Compound 53] | 20 to 100
Nc1ncnc2c1c(-c1ccc(Oc3ccccc3)cc1F)nn2C1CCC(CO)OC1 (stereo not shown) [Compound 54] | 20 to 100
Nc1nccn2c(C3CCC(CO)OC3)nc(-c3ccc(OCc4ccccc4)cc3)c12 (stereo not shown) [Compound 55] | 20 to 100
Nc1nccn2c(C3CCC(CO)OC3)nc(-c3cnc(Nc4cccc(OC(F)(F)F)c4)nc3)c12 (stereo not shown) [Compound 56] | > 1000
Nc1nccc2c1c(-c1ccc(C(=O)Nc3ccccn3)cc1F)nn2C1CCC(CO)OC1 (stereo not shown) [Compound 57] | 20 to 100
COc1cccc(NC(=O)c2ccc(-c3nc(C4CCC(CO)OC4)n4ccnc(N)c34)cc2)n1 (stereo not shown) [Compound 58] | > 1000
Nc1nccn2c(C3CCC(CO)OC3)nc(-c3ccc(Oc4cccnc4F)cc3)c12 (stereo not shown) [Compound 59] | > 1000
COc1cccc(C(=O)c2ccc(-c3nc(C4CCC(CO)OC4)n4ccnc(N)c34)cc2)c1F (stereo not shown) [Compound 61] | 5 to 20

Compound | IC50 [nM]
Nc1nccn2c(C3CCC(CO)OC3)nc(-c3ccc(C(=O)c4ccccc4Cl)cc3)c12 (stereo not shown) [Compound 62] | 20 to 100
Nc1nccn2c(C3CCC(CO)OC3)nc(-c3ccc(C(O)c4ccccc4Cl)cc3)c12 (stereo not shown) [Compound 63] | 100 to 1000
Nc1ccccc1C(=O)c1ccc(-c2nc(C3CCC(CO)OC3)n3ccnc(N)c23)cc1 (stereo not shown) [Compound 65] | 5 to 20
Nc1nccn2c(C3CCC(CO)OC3)nc(-c3ccc(C(=O)c4ccccc4O)cc3)c12 (stereo not shown) [Compound 66] | 20 to 100
CNc1ccccc1C(=O)c1ccc(-c2nc(C3CCC(CO)OC3)n3ccnc(N)c23)cc1 (stereo not shown) [Compound 67] | 100 to 1000
Nc1nccn2c(C3CCC(CO)OC3)nc(-c3ccc(C(=O)Nc4ccc(Cl)cn4)cc3)c12 (stereo not shown) [Compound 68] | 20 to 100
Nc1nccn2c(C3CCC(CO)OC3)nc(-c3ccc(C(=O)Nc4ccc(F)cn4)cc3)c12 (stereo not shown) [Compound 69] | 20 to 100
Nc1cccc(NC(=O)c2ccc(-c3nc(C4CCC(CO)OC4)n4ccnc(N)c34)cc2)n1 (stereo not shown) [Compound 71] | 20 to 100
Nc1nccn2c(C3CCC(CO)OC3)nc(-c3ccc(C(=O)Nc4cccc(Br)n4)cc3)c12 (stereo not shown) [Compound 72] | 100 to 1000
Nc1nccn2c(C3CCC(CO)OC3)nc(-c3ccc(C(=O)Nc4ccc(C(F)(F)F)cn4)cc3)c12 (stereo not shown) [Compound 73] | 100 to 1000
COCCOc1ccc(-c2nc(C3CCC(CO)OC3)n3ccnc(N)c23)cc1 (stereo not shown) [Compound 74] | > 1000
Nc1nccn2c(C3CCC(CO)OC3)nc(-c3ccc(Oc4cccc(OC(F)F)c4F)cc3)c12 (stereo not shown) [Compound 75] | 5 to 20
COc1c(F)cccc1Oc1ccc(-c2nc(C3CCC(CO)OC3)n3ccnc(N)c23)cc1 (stereo not shown) [Compound 76] | 100 to 1000
Cc1ccc(Oc2ccc(-c3nc(C4CCC(CO)OC4)n4ccnc(N)c34)cc2)c(F)c1 (stereo not shown) [Compound 77] | 20 to 100
Cc1ccc(Oc2ccc(-c3nc(C4CCC(CO)OC4)n4ccnc(N)c34)cc2)cc1 (stereo not shown) [Compound 78] | 20 to 100
COc1cccc(NC(=O)c2ccc(-c3nc(C4CCC(CO)OC4)n4ccnc(N)c34)cc2)c1F (stereo not shown) [Compound 79] | > 1000
Nc1nccn2c(C3CCC(CO)OC3)nc(-c3cnc(Oc4cccc(Cl)c4)nc3)c12 (stereo not shown) [Compound 81] | > 1000
COc1cccc(Oc2ccc(-c3nc(C4COC5C(O)COC45)n4ccnc(N)c34)cc2)c1F (stereo not shown) [Compound 82] | 20 to 100
Nc1nccn2c(C3COC4C(O)COC34)nc(-c3ccc(C(=O)Nc4ccccn4)cc3)c12 (stereo not shown) [Compound 83] | 100 to 1000
Nc1nccn2c(C3CCC(CO)OC3)nc(-c3ccc(Oc4ccc5c(c4F)OCC5)cc3)c12 (stereo not shown) [Compound 84] | 20 to 100
Nc1nccn2c(C3CCC(CO)OC3)nc(-c3ccc(Oc4ccc5c(c4F)OCO5)cc3)c12 (stereo not shown) [Compound 85] | 100 to 1000
